Reference: a melting point compilation (Tetko et al.; mined from patent text by program, amines drawn as free bases though some values may be those of a salt)

SMILES	melting point
Cc1cc(C2=NN[C@H](C)Cc3cc4c(cc32)OCO4)ccc1N	193 to 196 °C
C/C=C/CC(=O)N[C@H]1CC[C@H](CCN2CCN(c3nccc4c3CCO4)CC2)CC1	176 °C
Cc1c(C)c2c(c(C)c1OCc1ccccc1)CC[C@@](C)(CO)O2	66 to 69.5 °C
COc1cccc2c(Nc3ccc(C(=O)NC4CCN(Cc5ccccc5)CC4)cc3)c(C(=O)NC3CCN(C)CC3)cnc12	230 to 232 °C
CCCCCNC(=O)C(C)Cc1ccc2c(c1)c(Cc1ccc(C(=O)OC)cc1OC)cn2C (stereo unspecified)	128 to 130 °C
Cc1oc2nc3c(c(NC(=O)C(C)C)c2c1C)CCCC3	245 to 246 °C
CCCCCCCCCCCCCCC(=O)C(=O)N[C@H](C(=O)NCC(=O)O)C(C)C	87 to 89 °C
CC1=NC(NC(=O)Nc2cccc(C)c2)C(=O)N(CC(=O)N2CCC(N3CCCCC3)CC2)c2c(C)cccc21 (stereo unspecified)	214 to 217 °C
C#Cc1ccc(N)nc1	143 °C
CCCCCC(C)N(Cc1ccc(CC(C)(C)C)s1)C(Nc1ccc(OC)cc1OC)=C1C(=O)OC(C)(C)OC1=O (stereo unspecified)	152 to 153 °C
Cc1oc(-c2ccccc2)nc1COc1nn(Cc2ccc(Oc3ccccc3)cc2)cc1C=O	129 to 130 °C
BrCC(=CSc1ccccc1Br)c1ccccc1	65 °C
CCOP(=O)(/C=C/c1cn(-c2ccccc2)nc1OCc1ccc(OCc2nc(N3CCOCC3)sc2C)c(OC)c1)OCC	88 to 90 °C
CCOC(=O)/C=C(C)/C=C/C1=C(Br)CCC1	85 to 86 °C
CCCCCCCCCCOc1cnc(-c2ccc(CCCCCC(C)O)cc2)nc1 (stereo unspecified)	78 to 79 °C
Cc1ccc(-c2nnc(N3CCCCC3)nc2-c2ccc(C)cc2)cc1	141 to 143 °C
CCCCCCCCCCCCCCOc1ccc(C(=O)OCC)cc1	34 to 35 °C
CC1CN(CCCCC(c2ccc(F)cc2)c2ccc(F)cc2)CCN1CC(=O)Nc1c(Cl)cc(NC(N)=O)cc1Cl (stereo unspecified)	120 °C
COC(=O)c1cccc([N+](=O)[O-])c1CS(=O)(=O)NC(=O)Nc1nc(OC)cc(OC)n1	177 to 181 °C
NC(CCC(=O)O)c1cccs1 (stereo unspecified)	148 to 156 °C
Cc1nc2c(N)nc3c(c2n1CCCCS(=O)(=O)C(C)C)CCCC3	177 to 178 °C
CCC1(Cl)NN=C2C=Nc3cc(Cl)c(Cl)cc3N21 (stereo unspecified)	198 to 201 °C
C(=Cc1cc2cc3ccccc3cc2s1)c1ccccc1	305 to 307 °C
OC1CCN(Cc2cccc(F)c2)CC1	61 to 62 °C

SMILES	melting point
O=C1NCC[C@@H]1NCc1ccc(OCc2cccc(F)c2)cc1	140 to 144 °C
COC(=O)C(C)N(C(=O)CO)c1c(C)csc1C (stereo unspecified)	69 to 70 °C
Nc1nc2ccccc2c2sc(C=Cc3ccccc3)nc12	239 to 241 °C
N#CC1=C(c2cc3ccccc3o2)Nc2n[nH]cc2C1c1cccc2nonc12 (stereo unspecified)	> 270 °C
O=C(c1ccc(NS(=O)(=O)c2ccccc2Cl)cc1)N1Cc2cccn2Cc2ccccc21	206 to 210 °C
C(=Cc1ccc2c(n1)[nH]c1ccccc12)c1ccccc1	> 220 °C
O=C1CCC(N2Cc3c(OCc4cc(Cl)cc(Cl)c4)cccc3C2=O)C(=O)N1 (stereo unspecified)	271 to 273 °C
Nc1ccccc1CCc1n[nH]c2c1c(=O)n(-c1ccccc1)c1ncccc21	289 to 291 °C
CCNc1nc2c(N)nc3ccccc3c2n1CC(C)(C)O	233 to 235 °C
OC(CCc1cccnc1)COc1ccc(C=Cc2ccccc2)cc1 (stereo unspecified)	110 to 111 °C
O=C(O)CS(=O)(=O)c1cc(NS(=O)(=O)c2cccs2)c2ccccc2c1O	190 to 192 °C
N[C@@H](Cc1cccc(Oc2ccc(Oc3ccc(O)cc3)cc2)c1)C(=O)O	67 to 71 °C
CCOCCn1cc2c(C3C(=O)Nc4ccc(Cl)cc43)nc(NCCc3cccnc3)nc2n1 (stereo unspecified)	224 to 226 °C
CC(C)c1cccc(C(C)C)c1NC(=O)Nc1ccccc1CCc1cc(C(C)(C)C)c(O)c(C(C)(C)C)c1	209 to 210 °C
CN(C)CCCC(N)=S	77 °C
CC(Cl)C(=O)Nc1cccc2c1C(=O)c1cccc(NC(=O)C(C)Cl)c1C2=O (stereo unspecified)	288 to 289 °C
N#Cc1ccccc1OC[C@@H](O)CNCCOc1ccc2oc(-c3ccon3)cc2c1	94 to 95 °C
O=C1CCC(N2Cc3c(OCc4nc(CN5CCOCC5)no4)cccc3C2=O)C(=O)N1 (stereo unspecified)	150 to 152 °C
CCOC(=O)NC(=S)CNc1ccc(C(=O)OC)c(S(=O)(=O)NC(C)(C)C)c1	110 °C
CC(=O)OC1CC2(C)C(Sc3ccccc3)=CCC2C2CCC3=CC(=O)C=CC3(C)C12F (stereo unspecified)	229 to 231 °C
CN1C2CCC1CN(c1ccc(C#Cc3ccc(NC(=O)c4ccccc4)cc3)nn1)C2	88 to 96 °C
CNC(=C[N+](=O)[O-])NCCCSc1nccc(NC(N)=NCC(F)(F)F)n1	189 to 191 °C
O=C1CC(c2coc3ccccc23)=Nc2cc3c(cc21)OCO3	> 315 °C
FC(F)(F)c1ccc(NC(=S)Nc2cc(C(F)(F)F)nc(C(F)(F)F)c2)cc1	125 to 132 °C

SMILES	melting point
COc1ccc(Oc2ccc([N+](=O)[O-])cc2)c(Cl)c1Cl	165 to 166 °C
CC(OCc1cc2cc(C(F)(F)F)ccc2n1S(=O)(=O)c1ccccc1)C(=O)O (stereo unspecified)	72 to 74 °C
O=C1N(Cc2ccc(Cl)s2)c2ccc(F)cc2C12COc1cc3c(cc12)OCO3 (stereo unspecified)	142 to 144 °C
O=C(NCCO[N+](=O)[O-])c1ccc(C2NC(C(=O)O)CS2)cc1 (stereo unspecified)	128 to 130 °C
O=C1c2ccc(C#Cc3ccccc3)cc2C(=O)N1c1ccc2c(c1)C=C2	194 to 195 °C
c1ccc(CN2CCC(c3nc(-c4ccc(-c5ccccc5)cc4)c[nH]3)CC2)cc1	110 to 112 °C
COC1CCC(S(=O)(=O)c2ccccc2)O1 (stereo unspecified)	68 °C
Cc1ncn(-c2nc(Cl)c(-c3ccccc3)c3ccccc23)c1C	164 to 165 °C
CCCN(CCC)C(=O)n1cnc(S(=O)CCC)n1 (stereo unspecified)	50 to 52 °C
CC(C)(C)OC(=O)N1CCN(C(=O)c2ccc(-c3[nH]nc4c3C(=O)c3c(NC(=O)NN5CCOCC5)cccc3-4)s2)CC1	225 to 226 °C
Clc1ccc(N=C2NCCN2)c(Cl)c1Cl	161 °C
CS(=O)(=O)Nc1cc2occ([N+](=O)[O-])c(=O)c2cc1Oc1ccccc1	225 to 227 °C
OCc1ccccc1CCc1ccc(Br)cc1	72 to 75.5 °C
COc1ccc(CN(C)CCCCc2ccc(NC(=O)c3cccc4c(=O)c5ccccc5sc34)cc2)cc1OC	156 °C
O=c1c2cccnc2c(-c2cccc([N+](=O)[O-])c2)nn1Cc1ccccc1	132 °C
Cn1c(C(F)(F)F)cc(=O)n(-c2c(F)cc(Cl)c3nc(N)oc23)c1=O	144 to 150 °C
CC1(C)CCSc2c(CC#Cc3ccc(C=O)cc3)cccc21	55 to 63 °C
CCN1C(=O)C(C)(C)C(=O)N(C)c2cc(CN(CCn3c(=O)ccc4ccccc43)Cc3ccc(OC)nc3C)ccc21	143 to 144 °C
C[C@@H]1Cc2cc(N3C[C@H](COS(C)(=O)=O)OC3=O)ccc2N1C(=O)OCc1ccccc1	72 to 73 °C
Nc1nc(N)c2[nH]c(C3OC(CO)C(O)C3O)nc2n1 (stereo unspecified)	234 to 237 °C
CCCCCCCCCCCC(OO)OOC(CCCCCCCCCCC)OO (stereo unspecified)	56 to 58 °C
Cn1cc2c([C@H]3C[C@H]3CN)cccc2n1 (relative stereo)	155 to 156 °C
CCOC(=O)CCN1CCN(C2=Nc3ccccc3Cc3ccccc32)CC1	133 to 134 °C

The next lines start with the values.

melting point	SMILES
75 to 76 °C	Cc1nc(-c2ccccc2)n[nH]c1=O
141 °C	CCOc1nc(=O)n(C(=O)Nc2cccc(Cl)c2)s1
140 to 143 °C	N#CCOC(=O)c1cccnc1SCC#N
95 to 98 °C	CCn1ncc2c(Cl)c3ccc(OC)cc3nc21
88 to 90 °C	CNC[C@@H](O)c1cc2ccccc2o1
329 to 333 °C	CC1=C(C#N)S(=O)(=O)c2ccc(C(F)(F)F)cc2N1
275 to 278 °C	Cc1nc(-n2ccc(O)cc2=O)sc1C(=O)NCc1ccncc1
187 to 188 °C	O=[N+]([O-])c1cccc2c(Br)nccc12
177 to 180 °C	CCCn1ncc2c(=O)[nH]c(-c3cc(S(=O)(=O)Cl)ccc3OCC)nc21
112 to 113 °C	CC(C)c1nc(C(C)(C)C)cc(-c2ccc(F)cc2)c1CO
129 °C	CCCCNC(=O)NS(=O)(=O)c1cc(Cl)ccc1C(=O)OC(C)C
192 to 195 °C	O=C(Nc1ccc(-n2nc(C3CC3)cc2C2CC2)nc1)c1ccncc1F
227 to 228 °C	Cc1cncn1CC(=O)CCc1ccc(Cl)cc1
112 to 113 °C	O=C(/C=C/c1cccc(Cl)c1)NC1CC1
184 to 186 °C	Cc1nc2cc(NC(=O)Nc3cccc(C(F)(F)F)c3)ccc2o1
152 to 155 °C	CC(C)(C)c1cc(C=Cc2ccccc2O)on1
218 to 220 °C	CC(C)c1ccc(-c2cnc(-c3cccc(C(=O)O)c3)s2)cc1
196 to 198 °C	CC(=O)Nc1ccc2oc3c(c2c1)CCCC3
77.5 to 78.5 °C	COc1ccc(N)c(CCc2ccccn2)c1
30 to 31.5 °C	COC(=O)CCCCCCC1=CCc2cc(OC)ccc21
254 to 256 °C	COC(=O)c1ccc2c(c1)S(=O)(=O)c1ccccc1N=C2Cl
171 to 172 °C	O=C(O)CCc1cnoc1-c1ccc(C(F)(F)F)cc1
236 to 237 °C	CC(=O)c1cc(-c2ccncc2)[nH]c1C
44 to 45 °C	c1cncc(-c2nccs2)c1
230 °C	CCCCc1[nH]c2ccc([N+](=O)[O-])cc2c1C(=O)c1ccc(O)cc1
122 to 125 °C	CN(C)CCNC(=O)c1ccc(-c2ccc3nnn(Cc4ccc5ncccc5c4)c3n2)cc1F
278 to 279 °C	CCc1nn(-c2ccc3cc(-c4ccc([N+](=O)[O-])cc4)c(=O)oc3c2)nc1C
112 to 114 °C	CC(C)(C)C(=O)C(Oc1ccccc1)C(=O)Nc1ccc(Cl)cc1Cl (stereo unspecified)
186 to 188 °C	Oc1ncncc1Oc1ccccc1
154 to 155 °C	CCOC(=O)c1cc2c3cccc(OC)c3ncn2c1
